Earlier results on 1 molecule are cited in patent US20190358206A1, “TOPICAL FORMULATIONS OF BIARYL HETEROCYCLIC COMPOUNDS AND METHODS OF USE THEREOF” (Melinta Subsidiary Corp., priority 2016, published 2019).

The data set relates to intracellular S. aureus (including linezolid-resistant), Listeria monocytogenes and Legionella pneumophila. The conditions noted are these: cited from earlier work.

As for `CC(=O)NC[C@H]1CN(c2ccc(-c3ccc(CNCc4cnn[nH]4)cc3)c(F)c2)C(=O)O1` [Radezolid, N-[3-(2-Fluoro-4′-{[(1H-[1,2,3]triazol-4-ylmethyl)-amino]-methyl}-biphenyl-4-yl)-2-oxo-oxazolidin-5-(S)-ylmethyl]-acetamide], the intracellular killing entry was “kills intracellular S. aureus (including linezolid-resistant), Listeria monocytogenes and Legionella pneumophila”.
